# Key:
# spleen and lung cells [1] = test: Antigen-specific multifunctional T cells after ESAT-6 stimulation (flow cytometry); conditions: mouse, in vivo
# spleen and lung cells [2] = test: Type and number of memory T cells in spleen and lung (flow cytometry); format: in vivo, mouse; conditions: both spleen and lung cells of immunized mice; compared with MPL as adjuvant; FIG. 1D
# Source text: In general, when infected with Mycobacterium tuberculosis, Mycobacterium tuberculosis antigen-specific T cells replicate and differentiate to become effector T cells. When the immune response disappears, most of these effector T cells die, and some form long-lasting memory T cells. It is known that the memory T cells thus formed play a critical role in the formation of a rapid acquired defense immunity and maintenance of the memorization of T cells. […] For the experiment, the spleen and lung cells of the mouse obtained in the same manner as in Example 1.2 were washed twice with PBS and then centrifuged. The centrifuged cells were treated with anti-CD3-BV421 (BD Bioscience), anti-CD4-PerCP-Cy5.5 (BD Bioscience), anti-CD8-APC-Cy7 (BD Bioscience), anti-CD44-PE (Ebioscience), anti-CD62L-FITC (Ebioscience), anti-CD127-APC (Ebioscience), etc. Then, they were reacted at 4° C. for 30 minutes. After the reaction was completed, cells were washed several times with PBS to remove unbound antibody, and then effector T cells (Teff; CD3^+CD4^+CD62L^−CD44+CD127^−), effector/memory T cells (Tem; CD3^+CD4^+CD62L^−CD44^+CD127^+), central memory T cells (Tcm; CD3^+CD4^+CD62L^+CD44^+CD127^+), and naive T cells (Naive; CD3^+CD4^+CD62L^+CD44^−CD127^+) were analyzed by using flow cytometer (FACS verse, BD).
compound,measurement,setting,value
monophosphoryl lipid A [MPL],"T cells secreting all three types of cytokines IFN-γ, TNF-α and IL-2",spleen and lung cells [1],increased
"Nc1nc2c(ncn2[C@@H]2O[C@@H]3COP(=O)(O)O[C@H]4[C@@H](O)[C@H](n5cnc6c(=O)[nH]c(N)nc65)O[C@@H]4COP(=O)(O)O[C@H]3[C@H]2O)c(=O)[nH]1 [c-di-GMP, cyclic diguanylate]",effector/memory T of CD4+/CD8+,spleen and lung cells [2],significant increase
same,"T cells secreting all three types of cytokines IFN-γ, TNF-α and IL-2",spleen and lung cells [1],increased
